Test results: ChEMBL document CHEMBL4651402, “Screening of ~5500 FDA-approved drugs and clinical candidates for anti-SARS-CoV-2 activity” (2021)

How the values were obtained:
SARS-CoV-2 [1] = experiment: microbe, parasite or virus in culture; assay type: functional, organism-based, Chlorocebus sabaeus, Vero C1008; conditions: Severe acute respiratory syndrome coronavirus 2, Vero C1008, 48 h
in vitro = conditions: chlorocebus sabaeus, Vero E6 (Vero C1008) cells
SARS-CoV-2 [2] = experiment: microbe, parasite or virus in culture; conditions: Severe acute respiratory syndrome coronavirus 2, Vero C1008, 48 h

SMILES	IC50 (SARS-CoV-2 [1]; read-out: IC50)	IC50 (SARS-CoV-2 [1]; read-out: pIC50 (converted))	CC50 at 48 h (in vitro; CC50)	CC50 at 48 h (in vitro; pCC50)	IC50 (SARS-CoV-2 [2])	IC50 (SARS-CoV-2 [2]; read-out: pIC50 (converted))
COc1cc2c(cc1OC)C(c1cccc(Cl)c1)=NN=C(C)C2 [GIRISOPAM]	> 100 µM	> 100 µM	> 100 µM	> 100 µM	> 100 µM	> 100 µM
CCN(CC)Cc1ccc2cc(COC(=O)Nc3ccc(C(=O)NO)cc3)ccc2c1 [GIVINOSTAT]	> 100 µM	> 100 µM	0.767 µM	0.759 µM	10.5 µM	10.5 µM
CCn1cc(-c2ccnc3[nH]c(-c4cccc(CN(C)C)c4)cc23)c(-c2ccc(NC(=O)N(C)C)cc2)n1 [GSK-1070916]	> 100 µM	> 100 µM	9.33 µM	9.33 µM	> 100 µM	> 100 µM
CCN(CC)CCOc1ccc(-c2nc3cc(Cl)ccc3s2)cc1 [HALETHAZOLE]	> 100 µM	> 100 µM	3.72 µM	3.72 µM	~3.89 µM	~3.89 µM
CCCCN(CCCC)CCC(O)c1cc2c(Cl)cc(Cl)cc2c2cc(C(F)(F)F)ccc12 (centres undefined) [HALOFANTRINE]	~9.12 µM	~9.12 µM	11.5 µM	11.5 µM	9.55 µM	9.55 µM
CN1CCCN(C(c2ccccc2)c2ccc(Cl)cc2)CC1 (centres undefined) [HOMOCHLORCYCLIZINE]	> 25.1 µM	> 25.1 µM	21.1 µM	20.9 µM	> 20 µM	> 20 µM
CC[C@H]1CN2CC[C@H]1C[C@H]2[C@H](O)c1ccnc2ccc(OC)cc12 [HYDROQUININE]	> 25.1 µM	> 25.1 µM	> 25.1 µM	> 25.1 µM	15.5 µM	15.5 µM
CCN(CCO)CCCC(C)Nc1ccnc2cc(Cl)ccc12 (centres undefined) [HYDROXYCHLOROQUINE]	~17.1 µM	~17 µM	47.9 µM	47.9 µM	~11.6 µM	~11.5 µM
COc1ccc2c(c1)c(CC(=O)O)c(C)n2C(=O)c1ccc(Cl)cc1 [INDOMETHACIN]	> 100 µM	> 100 µM	> 100 µM	> 100 µM	> 100 µM	> 100 µM
CO[C@H]1CC[C@H](n2c([C@@H]3CCCC(=O)N3c3ccc(F)c(F)c3)nc3cc(-c4c(C)noc4C)ccc32)CC1 [INOBRODIB]	> 100 µM	> 100 µM	3.16 µM	3.16 µM	> 100 µM	> 100 µM
CC(C)(C)c1cc(C(C)(C)C)c(NC(=O)c2c[nH]c3ccccc3c2=O)cc1O [IVACAFTOR]	> 25.1 µM	> 25.1 µM	4.62 µM	4.57 µM	4.57 µM	4.57 µM
Clc1ccc(-c2nn(Cc3ccccc3)c3c2CCNCC3)cc1 [JNJ-18038683 FREE BASE]	> 25.1 µM	> 25.1 µM	14.6 µM	14.5 µM	> 25.1 µM	> 25.1 µM
CCCCCCC(C)(C)c1cc(O)c2c(c1)OC(C)(C)[C@@H]1CC=C(C(=O)O)C[C@@H]21 [LENABASUM]	> 100 µM	> 100 µM	~21.4 µM	~21.4 µM	> 100 µM	> 100 µM
Clc1cnn(CCCCN2CCN(c3ncccn3)CC2)c1 [LESOPITRON]	> 100 µM	> 100 µM	> 100 µM	> 100 µM	2.34 µM	2.34 µM
COc1ccc2c(c1)N(C[C@H](C)CN(C)C)c1ccccc1S2 [LEVOMEPROMAZINE]	> 50.1 µM	> 50.1 µM	11.6 µM	11.5 µM	11.8 µM	11.7 µM
Cc1cccc(C)c1NC(=O)CN1CCN(CCCC(c2ccc(F)cc2)c2ccc(F)cc2)CC1 [LIDOFLAZINE]	> 100 µM	> 100 µM	8.41 µM	8.32 µM	9.55 µM	9.55 µM
CN1CCC(OC(=O)C(Oc2ccc(Cl)cc2)Oc2ccc(Cl)cc2)CC1 [LIFIBRATE]	> 100 µM	> 100 µM	38 µM	38 µM	> 100 µM	> 100 µM
Cc1cccc(C)c1OCC(=O)N[C@@H](Cc1ccccc1)[C@@H](O)C[C@H](Cc1ccccc1)NC(=O)[C@H](C(C)C)N1CCCNC1=O [LOPINAVIR]	~15.7 µM	~15.5 µM	~33.7 µM	~33.9 µM	22.9 µM	22.9 µM
C#C[C@]1(O)CC[C@H]2[C@@H]3CCC4=CCCC[C@@H]4[C@H]3CC[C@@]21C [LYNESTRENOL]	> 50.1 µM	> 50.1 µM	10.5 µM	10.5 µM	> 50.1 µM	> 50.1 µM
